Ends that are not written are not given here.

One experiment deals with T1, hMfn2 (Homo sapiens, UniProt O95140).
T1 construct: expressed in transfected cells; host or cells: FMK 293T cells (so in the source), Lipofectamine-transfected, pcDNA3.1
T1 sequence (O95140 1-757): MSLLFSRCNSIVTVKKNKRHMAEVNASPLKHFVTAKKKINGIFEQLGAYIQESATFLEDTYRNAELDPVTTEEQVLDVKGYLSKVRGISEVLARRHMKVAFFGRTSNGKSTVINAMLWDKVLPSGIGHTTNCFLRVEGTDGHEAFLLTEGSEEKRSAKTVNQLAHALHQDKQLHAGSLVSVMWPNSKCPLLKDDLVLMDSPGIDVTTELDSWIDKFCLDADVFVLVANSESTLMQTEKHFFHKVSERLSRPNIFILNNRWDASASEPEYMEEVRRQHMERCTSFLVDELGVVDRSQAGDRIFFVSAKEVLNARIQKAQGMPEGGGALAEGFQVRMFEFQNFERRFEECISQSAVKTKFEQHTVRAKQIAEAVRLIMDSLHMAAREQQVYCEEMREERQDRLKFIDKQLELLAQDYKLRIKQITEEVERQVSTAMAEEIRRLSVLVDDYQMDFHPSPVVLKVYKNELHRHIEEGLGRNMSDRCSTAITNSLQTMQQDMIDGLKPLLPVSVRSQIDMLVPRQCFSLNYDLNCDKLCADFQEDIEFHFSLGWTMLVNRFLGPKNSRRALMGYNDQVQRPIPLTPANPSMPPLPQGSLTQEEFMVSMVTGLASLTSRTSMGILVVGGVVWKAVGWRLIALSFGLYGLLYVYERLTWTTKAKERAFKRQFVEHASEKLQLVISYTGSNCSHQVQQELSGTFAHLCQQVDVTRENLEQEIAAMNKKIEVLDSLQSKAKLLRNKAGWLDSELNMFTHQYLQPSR
Put plainly: Mfn2 FRET assay in live cells. In kind it is cell-based. As to conditions: 5 μM TAT-minipeptide, data not shown. How it is done: mCerulean1 and mVenus were cloned onto the 5′ and 3′ ends of hMfn2 cDNA in pcDNA3.1 and confirmed by DNA sequencing. Lipofectamine-transfected biosensor-expressing FMK 293T cells were imaged on an Olympus IX81 ZDC inverted microscope under 40× magnification. mCerulean was excited at 436 nm with emission at 480 nm. mVenus was excited at 500 nm with emission at 535 nm. FRET was imaged with excitation at 436 nm and emission at 535 nm. Studies were performed after adding GTP[…]S (1 mM, Sigma-Aldrich) to suppress Mfn2 GTPase activity. Live cell FRET data were acquired as described (Spiering et al., 2013, Methods Cell Biol, 114:593-609) every 60 seconds for 15 minutes before and 90 minutes after addition of TAT-minipeptides (5 µM).

Experiment [1] deals with Mfn null MEFs expressing Mfn2 K109A or Mfn2 AA. Description: TAT-minipeptides in Mfn null MEFs expressing Mfn2 mutants. As to conditions: for mitochondrial morphology: Mfn null MEFs expressing Mfn2 AA. Format: cell-based, murine. The text has this:
The efficacy of the minipeptides to correct mitochondrial abnormalities in Mfn null MEFs was further evaluated. In this experiment, several Mfn2 mutants having well-characterized and diverse functional profiles were introduced into Mfn null MEFs. As shown above, mitochondria of MEFs lacking Mfn1 and Mfn2 are highly fragmented. Adenoviral reintroduction of WT Mfn2 corrected dysmorphology in Mfn null MEFs and was required for TAT minipeptides to alter mitochondrial fusion in these cells (FIGS. 12A-12B). By contrast, adenoviral expression of mouse Mfn2 K109A, a GTPase defective mutant (Detmer and Chan, 2007, J Cell Biol, 176:405-414), had no effect on mitochondrial fragmentation in Mfn null MEFs. […] Mitochondrial morphometry in Mfn null MEFs expressing fusion-impaired Mfn2 EE, which has glutamate substitutions to mimic phosphorylation at Mfn2 T111 and […], was more variable (FIG. 12A-12B).

Experiment [2] concerns the target T2, human Mfn2 (Homo sapiens, UniProt O95140).
T2 sequence (O95140 1-757): T1 sequence (O95140 1-757)
Description: Mfn2 GTPase assay. In kind it is biochemical. As to conditions: 1 M peptide 15 minutes, then 0.5 mM GTP 1 hour 37° C.; data not shown. Also noted: purchased OriGene. How it is done: Minipeptide effects on Mfn2 GTPase activity were evaluated using a modification of a previously described method (Qi X et al., 2013, J Cell Sci 126:789-802). Briefly, recombinant Mfn2 (100 ng, OriGene, Rockville, Md.) was incubated with […] control TAT peptide, TAT-367-384Gly, or TAT-398-418Gly for 15 minutes prior to addition of 0.5 mM GTP for 1 hour at 37° C. GTPase activity relative to no-peptide control was measured using a colorimetric GTPase assay kit (Novus Biologicals, Littleton, Colo.) following the manufacturer's instructions.

The target of experiment [3] is T2, human Mfn2. Description: Carboxypeptidase protection assay on mitochondrial membranes. Format: biochemical. On the set-up: from tissue; host or cells: mitochondrial membranes of transgenic mouse hearts overexpressing human Mfn2. As to conditions: 200 ng/ml carboxypeptidases A and B; mouse heart mitochondrial membranes overexpressing human Mfn2. How it is done:
Mitochondrial membranes were prepared (Song et al., 2015, Cell Metab, 21:273-285) from mouse hearts overexpressing human Mfn2 (Gong et al., 2015, Science, 350:aad2459) and digested with 200 ng/ml each carboxypeptidases A and B (Sigma-Aldrich) for increasing times at room temperature, followed by immunoblotting using an antibody (Abcam ab56889) specific to hMfn2 HR2.

Setting [4] is: Mfn null MEFs expressing only Mfn2 K109A.

Turning to “QIAEAVRGIMDSLHMAARGGYGRKKRRQRRR [TAT-367-384Gly]”, the “FRET of hMfn2 tagged with mCerulean1 and mVenus” value at hMfn2 is on record as “had the opposite effect”. Besides, the mitochondrial morphology entry in experiment [1] is given as “mitochondrial hyper-elongation”. Also, in experiment [1] (setting [4]), the “mitochondrial aspect ratio / mitochondrial pathology” value was “did not correct mitochondrial pathology” and the mitochondrial clumping entry is “mitochondrial clumping induced”. Also, on human Mfn2 [2], the “Mfn2 GTPase activity” value was “without altering Mfn2 GTPase activity”. Moreover, at human Mfn2 [3], the “carboxyl terminal-directed proteolytic digestion of Mfn2 (exposure of C-terminal HR2 domain)” value is recorded as “accelerated carboxyl terminal-directed proteolytic digestion of Mfn2”.

Consider “QDRLKFIDKQGELLAQDYKLRGGYGRKKRRQRRR [TAT-398-418Gly]”, for which the “FRET of hMfn2 tagged with mCerulean1 and mVenus” value at hMfn2 was “increased”. Moreover, in experiment [1], the mitochondrial morphology entry is “mitochondrial shortening”. Also, the “Mfn2 GTPase activity” value at human Mfn2 [2] was “without altering Mfn2 GTPase activity”. Besides, on human Mfn2 [3], the “carboxyl terminal-directed proteolytic digestion of Mfn2 (exposure of C-terminal HR2 domain)” value is recorded as “had the opposite effect”.

The record behind these values is US10578610B2, “Peptide regulators of mitochondrial fusion and methods of use” (priority 2016, dated 2020).
